From patent US20190177279A1, “CARBOXYLIC ACID AROMATIC 1,2-CYCLOPROPYLAMIDES” (Bayer Pharma Aktiengesellschaft, priority 2017, published 2019)
pIC50: −log10 of the molar value.

The compounds below were run against T1, native human B1 receptors (Homo sapiens, UniProt P46663) (assay: Calcium flux assay (FLIPR) with IMR-90 human foetal lung fibroblasts after IL-1 induction). Conditions: IMR-90 fibroblasts induced with human IL-1; 0.1% BSA in assay buffer; agonist Lys-(Des-Arg)-Bradykinin at EC90; read-out: hB1 IC50 IMR90.
T1 construct: which express native human B1 receptors after induction with human IL-1; Coriell Institute; host or cells: IMR-90 human foetal lung fibroblasts, induced with human IL-1
T1 sequence (P46663 1-353): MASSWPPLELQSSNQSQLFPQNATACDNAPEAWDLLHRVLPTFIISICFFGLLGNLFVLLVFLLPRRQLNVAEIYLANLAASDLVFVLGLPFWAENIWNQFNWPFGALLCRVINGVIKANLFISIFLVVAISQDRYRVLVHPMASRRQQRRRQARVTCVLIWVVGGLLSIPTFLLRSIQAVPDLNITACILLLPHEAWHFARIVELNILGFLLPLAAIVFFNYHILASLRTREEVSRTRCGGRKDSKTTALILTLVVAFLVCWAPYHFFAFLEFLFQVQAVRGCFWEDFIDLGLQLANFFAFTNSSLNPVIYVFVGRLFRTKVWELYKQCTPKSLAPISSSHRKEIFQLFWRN
Assay type: cell-based
Experimental: Calcium Flux Assay (FLIPR) with Human Fibroblasts for Bradykinin B1 Receptor Antagonist (hB1 IMR-90 IC50)
The Calcium flux Assay was carried out utilising IMR-90 human foetal lung fibroblasts (American Type Culture Collection, Rockville, Md.; and Coriell Institute, Camden, N.J.), which express native human B1 receptors after induction with human IL-1[…].
The fibroblasts were cultured in complete growth media comprised of Dulbecco's modified Eagle's medium (DMEM; Sigma) containing 10% foetal bovine serum, 4 mM L-glutamine, and 1% nonessential amino acids. The cells were maintained in a humidified atmosphere with 5% CO2 at 37° C. and were sub-cultured at a ratio of 1:3, every other day.
For the assay, IMR-90 fibroblasts were harvested using TrypLE Express (GIBCO/Invitrogen) and seeded into 384-well plates (Corning Cellbinding Surface, Cat. 3683) at a density of 15000 cells/well. The following day, cells were treated with 0.35 ng/mL human IL-1[…] in 10% FBS/MEM for 3 h to up-regulate B1 receptors. Induced cells were loaded with fluorescent calcium indicator by incubation with 2.5 μM Fluo-4/AM (Invitrogen) at 37° C., 5% CO2 for 2 h in the presence of 2.5 mM probenecid in 1% FBS/MEM. Extracellular dye was removed by washing with assay buffer (2.5 mM probenecid and 0.1% BSA in 20 mM HEPES/HBSS without bicarbonate or phenol red, pH 7.5). Example compounds were assayed at 8 concentrations in triplicate. After addition of example compounds to the cell plate and incubation for 30 min at 28° C., the addition of B1 agonist Lys-(Des-Arg)-Bradykinin (Bachem, Brackley) at a final concentration of EC90 was carried out on the FLIPR instrument while continuously monitoring Ca^2+-dependent fluorescence at 538 nm. A peptide antagonist Lys-(Des-Arg-Leu)-Bradykinin (Bachem, Brackley) at 20 μM was used to determine the full inhibition as control. IC50 values were determined by the same way described for the FLIPR assay with recombinant cells.

| Compound | pIC50 |
| --- | --- |
| CCC(F)(F)c1ccc(-c2ccc(NC(=O)C3CC3c3ccc(Cl)cc3)cc2C(=O)O)cn1 (racemic) [Example 23, 5-({[2-(4-Chlorophenyl)cyclopropyl]carbonyl}amino)-2-[6-(1,1-difluoropropyl)pyridin-3-yl]benzoic acid] | 6.28 |
| CC(C)(C)c1cnn(-c2ccc(NC(=O)C3CC3c3ccc(Cl)cc3)cc2C(=O)O)c1 (racemic) [Example 13, 2-(4-tert-Butyl-1H-pyrazol-1-yl)-5-({[2-(4-chlorophenyl)cyclopropyl]carbonyl}amino)benzoic acid] | 5.47 |

The compounds below were run against T2, human B1 receptor (Homo sapiens, UniProt P46663) (assay: Calcium flux assay (FLIPR) with recombinant CHO-K1 cells expressing human B1 receptor). Conditions: absence of 0.1% BSA in assay buffer, agonist Lys-(Des-Arg)-Bradykinin, read-out: hB1 free IC50.
T2 construct: host or cells: CHO-K1
T2 sequence (P46663 1-353): T1 sequence (P46663 1-353)
Assay type: cell-based
Experimental: The potency to inhibit the Bradykinin B1 receptors was determined for the example compounds of this invention in a cell-based fluorescent calcium-mobilisation assay. The assay measures the ability of example compounds to inhibit Bradykinin B1 receptor agonist-induced increase of intracellular free Ca^2+ in the cell line expressing B1 receptor. Specifically, calcium indicator—loaded cells are pre-incubated in the absence or presence of different concentrations of example compounds followed by the stimulation with a selective B1 receptor agonist peptide. The change of the intracellular Ca^2+ concentration is monitored with a fluorescent plate reader FLIPR (Molecular Devices).
Calcium flux Assay (FLIPR) with recombinant cells for Bradykinin B1 receptor antagonist, either in the presence (hB1 IC50) or absence (hB1 free IC50) of 0.1% BSA in assay buffer
CHO-K1 cell line expressing human B1 receptor was purchased from Euroscreen (Gosselies, Belgium, with reference name hB1-D1). The cells were grown in Nutrient Mixture Ham's F12 (Sigma) containing 10% Foetal bovine serum (Sigma) and 400 μg/mL G418 (Sigma), 5 μg/mL puromycin (Sigma).
For the calcium flux assay, 80% confluent cells were detached from the culture vessels with Versene (Gibco), and seeded into 384-well plates (Cell binding Surface; Corning, N.Y.; #3683) at a density of 15,000 cells per well. Cells were seeded in a volume of 50 μL in medium without antibiotics and incubated overnight in a humidified atmosphere with 5% CO2 at 37° C. […] The calcium indicator loaded cells were incubated at 37° C. for 2 hrs. Extracellular dye was then removed and each well was filled with 45 μL of assay buffer. Cell plates were kept in dark until used. Example compounds were assayed at 8 concentrations in triplicate. Serial 10-fold dilutions in 100% DMSO were made at a 100-times higher concentration than the final concentration, and then diluted 1:10 in assay buffer. 5 μL of each diluted compound was added to the well of cell plates (yielding final concentration with 1% DMSO), and incubated for 30 min at 28° C. before the addition of B1 receptor agonist on the FLIPR instrument.
Agonist plates contained the agonist Lys-(Des-Arg)-Bradykinin (Bachem, Brackley) at 3.5×EC90 in assay buffer with 1% DMSO. The addition of agonist 20 μl per well to the assay plate was carried out on the FLIPR instrument while continuously monitoring Ca^2+-dependent fluorescence at 538 nm. A peptide antagonist Lys-(Des-Arg-Leu)-Bradykinin (Bachem, Brackley) at 20 µM was used to determine the full inhibition as control.
Peak fluorescence was used to determine the response to agonist obtained at each concentration of example compound by the following equation:
% Response=100*(RFU(example compound)−RFU(control)/(RFU(DMSO)−RFU(control)) • Control=full inhibition by the peptide antagonist Lys-(Des-Arg-Leu)-Bradykinin at 20 μM
The response values were plotted against the logarithm of the compound concentrations. The compounds were tested in triplicates per plate and mean values were plotted in Excel XLfit to determine IC50 values, percentage of maximal inhibition and the Hill slopes.

| Compound | pIC50 |
| --- | --- |
| CCC(F)(F)c1ccc(-c2ccc(NC(=O)C3CC3c3ccccc3OC(F)(F)F)cc2C(=O)O)cn1 (racemic) [Example 20, 2-[6-(1,1-difluoropropyl)pyridin-3-yl]-5-[({2-[2-(trifluoromethoxy)phenyl]cyclopropyl}carbonyl)amino]benzoic acid] | 5.82 |
| CC(F)(F)c1ccc(-c2ccc(NC(=O)C3CC3c3ccccc3OC(F)(F)F)cc2C(=O)O)cn1 (racemic) [Example 16, 2-[6-(1,1-difluoroethyl)pyridin-3-yl]-5-[({2-[2-(trifluoromethoxy)phenyl]cyclopropyl}carbonyl)amino]benzoic acid] | 5.59 |
| O=C(O)c1cc(NC(=O)C2CC2c2cccc(Cl)c2)cc(F)c1-c1cnn(C2CCC2)c1 (single isomer, unassigned; (-)) [Example 9, (−)-5-({[2-(3-chlorophenyl)cyclopropyl]carbonyl}amino)-2-(1-cyclobutyl-1H-pyrazol-4-yl)-3-fluorobenzoic acid] | 7.77 |
| O=C(O)c1cc(NC(=O)C2CC2c2cccc(Cl)c2)cc(F)c1-c1cnn(C2CCC2)c1 (single isomer, unassigned; (+)) [Example 8, (+)-5-({[2-(3-chlorophenyl)cyclopropyl]carbonyl}amino)-2-(1-cyclobutyl-1H-pyrazol-4-yl)-3-fluorobenzoic acid] | 5.95 |
| CCC(F)(F)c1ccc(-c2ccc(NC(=O)C3CC3c3ccc(Cl)cc3)cc2C(=O)O)cn1 (racemic) [Example 23, 5-({[2-(4-Chlorophenyl)cyclopropyl]carbonyl}amino)-2-[6-(1,1-difluoropropyl)pyridin-3-yl]benzoic acid] | 6.51 |
| O=C(O)c1cc(NC(=O)C2CC2c2cccc(Cl)c2)ccc1-c1cnn(C2CCC2)c1 (single isomer, unassigned) [Example 11, 5-({[2-(3-chlorophenyl)cyclopropyl]carbonyl}amino)-2-(1-cyclobutyl-1H-pyrazol-4-yl)benzoic acid] | 7.49 |
| CC(C)(C)c1ccn(-c2ccc(NC(=O)C3CC3c3ccc(Cl)cc3)cc2C(=O)O)n1 (racemic) [Example 14, 2-(3-tert-Butyl-1H-pyrazol-1-yl)-5-({[2-(4-chlorophenyl)cyclopropyl]carbonyl}amino)benzoic acid] | 5.65 |
| O=C(O)c1cc(NC(=O)C2CC2c2ccccc2OC(F)(F)F)ccc1-c1cnn(C2CCC2)c1 (racemic) [Example 10, 2-(1-cyclobutyl-1H-pyrazol-4-yl)-5-[({2-[2-(trifluoromethoxy)phenyl]cyclopropyl}carbonyl)amino]benzoic acid] | 6.45 |
| CC(F)(F)c1ccc(-c2ccc(NC(=O)C3CC3c3cccc(Cl)c3)cc2C(=O)O)cn1 (racemic) [Example 17] | 5.61 |
| (−)-5-({[trans-2-(4-chlorophenyl)cyclopropyl]carbonyl}amino)-2-(1-cyclobutyl-1H-pyrazol-4-yl)-3-fluorobenzoic acid [Example 4] | 5.93 |
| CC(C)(C)c1cnn(-c2ccc(NC(=O)C3CC3c3ccc(Cl)cc3)cc2C(=O)O)c1 (racemic) [Example 13, 2-(4-tert-Butyl-1H-pyrazol-1-yl)-5-({[2-(4-chlorophenyl)cyclopropyl]carbonyl}amino)benzoic acid] | 5.75 |
| CCC(F)(F)c1ccc(-c2ccc(NC(=O)C3CC3c3cccc(C(F)(F)F)c3)cc2C(=O)O)cn1 (racemic) [Example 21, 2-[6-(1,1-difluoropropyl)pyridin-3-yl]-5-[({2-[3-(trifluoromethyl)phenyl]cyclopropyl}carbonyl)amino]benzoic acid] | 6.39 |
| O=C(O)c1cc(NC(=O)C2CC2c2ccc(Cl)cc2)ccc1-c1cnn(C2CCC2)c1 (single isomer, unassigned) [Example 7, 5-({[2-(4-chlorophenyl)cyclopropyl]carbonyl}amino)-2-(1-cyclobutyl-1H-pyrazol-4-yl)benzoic acid] | 6.93 |
| CC(F)(F)c1ccc(-c2ccc(NC(=O)C3CC3c3cccc(C(F)(F)F)c3)cc2C(=O)O)cn1 (racemic) [Example 18, 2-[6-(1,1-difluoroethyl)pyridin-3-yl]-5-[({2-[3-(trifluoromethyl)phenyl]cyclopropyl}carbonyl)amino]bentoic acid] | 5.60 |
| CC(F)(F)c1ccc(-c2ccc(NC(=O)C3CC3c3ccc(Cl)cc3)cc2C(=O)O)cn1 (racemic) [Example 19, 5-({[2-(4-chlorophenyl)cyclopropyl]carbonyl}amino)-2-[6-(1,1-difluoroethyl)pyridin-3-yl]benzoic acid] | 5.60 |
| Cc1cccc(C2CC2C(=O)Nc2ccc(-c3cnn(C4CCC4)c3)c(C(=O)O)c2)c1 (racemic) [Example 5, 2-(1-cyclobutyl-1H-pyrazol-4-yl)-5-({[2-(3-methylphenyl)cyclopropyl]carbonyl}amino) benzoic acid] | 6.96 |
| O=C(O)c1cc(NC(=O)C2CC2c2cccc(C(F)(F)F)c2)ccc1-c1cnn(C2CCC2)c1 (racemic) [Example 12, 2-(1-cyclobutyl-1H-pyrazol-4-yl)-5-[({2-[3-(trifluoromethyl)phenyl]cyclopropyl}carbonyl)amino]benzoic acid] | 6.90 |
| CCC(F)(F)c1ccc(-c2ccc(NC(=O)C3CC3c3cccc(Cl)c3)cc2C(=O)O)cn1 (racemic) [Example 22, 5-({[2-(3-chlorophenyl)cyclopropyl]carbonyl}amino)-2-[6-(1,1-difluoropropyl)pyridin-3-yl]benzoic acid] | 5.92 |
| O=C(O)c1cc(NC(=O)C2CC2c2ccc(Cl)cc2)ccc1-c1cnn(C2CCC2)c1 (racemic) [Example 6, 5-({[2-(4-chlorophenyl)cyclopropyl]carbonyl}amino)-2-(1-cyclobutyl-1H-pyrazol-4-yl)benzoic acid] | 6.57 |
